Experimental data from US6855730B2, “3-methylidenyl-2-indolinone modulators of protein kinase” (Sugen, Inc., priority 1998, dated 2005).
pIC50: −log10 of the molar value.

Biological target: EGFR (Homo sapiens, UniProt P00533)
Experiment: Biochemical EGFR assay (ELISA, A431 cell lysate)
Design: A431 cell lysate (Screening Lab, SUGEN, Inc.); host or cells: A431
Settings: read-out: bio EGFr IC50
How it was run: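 EGFR captured from A431 cell lysate onto anti-EGFR-coated plates, then incubated with test compound for 30 min at room temperature. Tyrosine phosphorylation with ATP/MnCl2 was stopped with EDTA after 5 min and detected by anti-phosphotyrosine ELISA with peroxidase/ABTS read-out.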

Sequence of EGFR (P00533 25-1210): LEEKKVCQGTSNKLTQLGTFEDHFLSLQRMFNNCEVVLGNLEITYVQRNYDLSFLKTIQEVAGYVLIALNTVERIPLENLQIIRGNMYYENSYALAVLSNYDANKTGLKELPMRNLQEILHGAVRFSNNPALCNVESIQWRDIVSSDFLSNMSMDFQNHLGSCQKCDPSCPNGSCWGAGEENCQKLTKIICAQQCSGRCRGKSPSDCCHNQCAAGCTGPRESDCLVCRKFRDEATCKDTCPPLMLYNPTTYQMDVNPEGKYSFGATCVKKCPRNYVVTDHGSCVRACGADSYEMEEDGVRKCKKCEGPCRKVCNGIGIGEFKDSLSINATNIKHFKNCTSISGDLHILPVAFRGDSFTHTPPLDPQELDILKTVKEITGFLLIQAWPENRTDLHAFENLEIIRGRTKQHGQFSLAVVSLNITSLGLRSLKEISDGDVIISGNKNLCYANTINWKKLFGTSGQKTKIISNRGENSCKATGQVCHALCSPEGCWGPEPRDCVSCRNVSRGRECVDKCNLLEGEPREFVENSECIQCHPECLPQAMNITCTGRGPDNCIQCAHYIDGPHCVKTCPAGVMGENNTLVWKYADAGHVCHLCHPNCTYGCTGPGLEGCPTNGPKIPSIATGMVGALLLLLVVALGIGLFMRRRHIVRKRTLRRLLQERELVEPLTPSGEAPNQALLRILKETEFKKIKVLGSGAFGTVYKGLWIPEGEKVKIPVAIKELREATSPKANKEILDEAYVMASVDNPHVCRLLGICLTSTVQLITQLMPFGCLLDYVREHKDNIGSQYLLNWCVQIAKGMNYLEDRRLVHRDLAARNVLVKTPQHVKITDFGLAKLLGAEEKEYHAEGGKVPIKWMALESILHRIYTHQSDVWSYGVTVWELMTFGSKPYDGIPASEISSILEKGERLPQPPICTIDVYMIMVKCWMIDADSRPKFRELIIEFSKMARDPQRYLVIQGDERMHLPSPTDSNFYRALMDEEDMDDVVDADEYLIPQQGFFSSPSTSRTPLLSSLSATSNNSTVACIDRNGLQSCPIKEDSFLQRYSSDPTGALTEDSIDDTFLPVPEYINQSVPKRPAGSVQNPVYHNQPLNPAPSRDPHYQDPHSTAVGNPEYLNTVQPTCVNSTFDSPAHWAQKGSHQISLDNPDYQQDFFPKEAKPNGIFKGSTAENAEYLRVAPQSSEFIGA

Structure (SMILES)	pIC50
COc1cc(C)c(/C=C2/C(=O)Nc3ncccc32)cc1C(C)C [Example 45, 3-(5-Isopropyl-4-methoxy-2-methylbenzylidene)-1,3-dihydro-pyrrolo[2,3-b]pyridin-2-one]	4.62
CCOc1cccc(-c2cc(C=C3C(=O)Nc4ccccc43)ccc2OC)c1 [Example 46, 3-(3′-Ethoxy-6-methoxybiphenyl-3-ylmethylene)-1,3-dihydroindol-2-one]	< 4.00
COc1ccc(/C=C2/C(=O)Nc3ncccc32)cc1C1CCCC1 [Example 47, 3-(3-Cyclopentyl-4-methoxybenzylidene)-1,3-dihydropyrrolo[2,3-b]pyridin-2-one]	4.43
COc1ccc(/C=C2\C(=O)Nc3cccc(C)c32)cc1C1CCCC1 [Example 48, 3-(3-Cyclopentyl-4-methoxybenzylidene)-4-methyl-1,3-dihydroindol-2-one]	< 4.00
COc1cc(C=C2C(=O)Nc3ccccc32)c(-c2ccccc2OC)cc1OC [Example 49, 3-(4,5,2′-Trimethoxybiphenyl-2-ylmethylene)-1,3-dihydroindol-2-one]	< 4.00
CC(=O)Nc1ccc2c(c1)NC(=O)/C2=C/c1ccc(OCCN2CCOCC2)c(-c2ccsc2)c1 [Example 50, N-{3-[4-(2-Morpholin-4-ylethoxy)-3-thiophen-3-ylbenzylidene]-2-oxo-2,3-dihydro-1H-indol-6-yl}-acetamide]	< 4.00
COc1ccc(/C=C2/C(=O)Nc3ccc(Cl)cc32)cc1C1CCCCC1 [Example 51, 5-Chloro-3-(3-cyclohexyl-4-methoxybenzylidene)-1,3-dihydroindol-2-one]	< 4.00
COc1c(C(C)C)cc(/C=C2/C(=O)Nc3cc(NC(=O)OC(C)(C)C)ccc32)cc1C(C)C [Example 52, [3-(3,5-Diisopropyl-4-methoxybenzylidene)-2-oxo-2,3-dihydro-1H-indol-6-yl]-carbamic acid tert-butyl ester]	< 4.00
COc1c(C(C)C)cc(/C=C2\C(=O)Nc3cccc(C)c32)cc1C(C)C [Example 53, 3-(3,5-Diisopropyl-4-methoxybenzylidene)-4-methyl-1,3-dihydroindol-2-one]	< 4.00
COc1c(C(C)C)cc(/C=C2/C(=O)Nc3ccc(Br)cc32)cc1C(C)C [Example 54, 5-Bromo-3-(3,5-diisopropyl-4-methoxybenzylidene)-1,3-dihydroindol-2-one]	< 4.00
CC(=O)Nc1ccc2c(c1)NC(=O)/C2=C/c1ccc(OCCN2CCOCC2)c(C(C)(C)C)c1 [Example 55, N-{3-[3-tert-Butyl-4-(2-morpholin-4-ylethoxy)-benzylidene]-2-oxo-2,3-dihydro-1H-indol-6-yl}-acetamide]	< 4.00
COc1c(C)cc(/C=C2/C(=O)Nc3ncccc32)cc1C [Example 56, 3-(4-Methoxy-3,5-dimethylbenzylidene)-1,3-dihydropyrrolo[2,3-b]pyridin-2-one]	5.00
CC(C)c1cc(/C=C2/C(=O)Nc3ccc(Br)cc32)cc(C(C)C)c1OCCN1CCOCC1 [Example 57, 5-Bromo-3-[3,5-diisopropyl-4-(2-morpholin-4-ylethoxy)benzylidene]-1,3-dihydroindol-2-one]	< 4.00
CCOc1cccc(-c2cc(OC)c(OC)cc2/C=C2/C(=O)Nc3ccccc32)c1 [Example 58, 3-(3′-Ethoxy-4,5-dimethoxybiphenyl-2-ylmethylene)-1,3-dihydroindol-2-one]	< 4.00
COc1ccc(/C=C2/C(=O)Nc3ccc(Cl)cc32)cc1-c1cccs1 [Example 59, 5-chloro-3-(4-Methoxy-3-thiophen-2-ylbenzylidene)-1,3-dihydroindol-2-one]	< 4.00
COc1ccc(/C=C2/C(=O)Nc3ccc(Cl)cc32)cc1-c1cccnc1 [Example 60]	< 4.00
COc1cccc(-c2cc(OC)c(OC)cc2/C=C2/C(=O)Nc3ccc(Cl)cc32)c1 [Example 61, 5-Chloro-3-(4,5-3′-Trimethoxybiphenyl-2-ylmethylene)-1,3-dihydroindol-2-one]	< 4.00
COc1cc(/C=C2/C(=O)Nc3ccccc32)c(-c2ccc3ccccc3c2)cc1OC [Example 62, 3-(4,5-Dimethoxy-2-naphthalen-2-ylbenzylidene)-1,3-dihydroindol-2-one]	< 4.00
COc1ccc2c(c1)NC(=O)/C2=C/c1ccc(OC)c(-c2ccsc2)c1 [Example 64, 6-Methoxy-3-(4-methoxy-3-thiophen-3-ylbenzylidene)-1,3-dihydroindol-2-one]	< 4.00

The remaining lines, values ahead:

pIC50	Structure (SMILES)
< 4.00	COc1ccc(/C=C2/C(=O)Nc3ccccc32)cc1-c1ccccc1 [Example 65, 3-(6-Methoxybiphenyl-3-ylmethylene)-1,3-dihydroindol-2-one]
< 4.00	O=C1Nc2ccccc2/C1=C\c1ccc2c(c1)CCO2 [Example 66, 3-(2,3-Dihydrobenzofuran-5-ylmethylene)-1,3-dihydroindol-2-one]
< 4.00	COc1ccc(/C=C2/C(=O)Nc3ccc(Cl)cc32)cc1-c1ccccc1 [Example 67, 5-Chloro-3-(6-methoxybiphenyl-3-ylmethylene)-1,3-dihydroindol-2-one]
< 4.00	COc1ccc(/C=C2\C(=O)Nc3cccc(C)c32)cc1C1CCCCC1 [Example 68, 3-(3-Cyclohexyl-4-methoxybenzylidene)-4-methyl-1,3-dihydroindol-2-one]
< 4.00	Cc1cccc2c1/C(=C/c1ccc3c(c1)CCO3)C(=O)N2 [Example 69, 3-(2,3-Dihydrobenzofuran-5-ylmethylene)-4-methyl-1,3-dihydroindol-2-one]
4.65	COc1ccc(/C=C2/C(=O)Nc3ncccc32)cc1C(C)C [Example 70, 3-(3-Isopropyl-4-methoxybenzylidene)-1,3-dihydropyrrolo[2,3-b]pyridine-2-one]
4.53	COc1ccc(/C=C2/C(=O)Nc3ncccc32)cc1-c1ccccc1 [Example 71, 3-(6-Methoxybiphenyl-3-ylmethylene)-1,3-dihydropyrrolo[2,3-b]pyridin-2-one]
4.93	COc1ccc(/C=C2/C(=O)Nc3ncccc32)cc1C1CCCCC1 [Example 72, 3-(3-Cyclohexyl-4-methoxybenzylidene)-1,3-dihydropyrrolo[2,3-b]pyridin-2-one]
5.10	O=C1Nc2ncccc2/C1=C\c1ccc2c(c1)CCO2 [Example 73, 3-(2,3-Dihydrobenzofuran-5-ylmethylene)-1,3-dihydropyrrolo[2,3-b]pyridin-2-one]
4.88	COc1c(C(C)C)cc(/C=C2/C(=O)Nc3ncccc32)cc1C(C)C [Example 74, 3-(3,5-Diisopropyl-4-methoxybenzylidene)-1,3-dihydropyrrolo[2,3-b]pyridin-2-one]
< 4.00	Cc1cc(CCC(=O)O)c(/C=C2\C(=O)Nc3cc(-c4ccc(F)cc4)ccc32)[nH]1 [Example 107, 3-{2-[6-(4-Fluorophenyl)-2-oxo-1,2-dihydroindol-3-ylidenemethyl]-5-methyl-1H-pyrrol-3-yl}propionic acid]
< 4.00	CCOC(=O)c1c(C)[nH]c(/C=C2\C(=O)Nc3cc(-c4ccc(F)cc4)ccc32)c1CCC(=O)O [Example 108, 4-(2-Carboxyethyl)-5-[6-(4-fluorophenyl)-2-oxo-1,2-dihydro-indol-3-ylidenemethyl]-2-methyl-1H-pyrrole-3-carboxylic acid ethyl ester]
